29 compounds from patent US20250346593A1, “IMIDAZO(1,2-1)PYRIDINE DERIVATIVES AS RIPK2 INHIBITORS” (Interline Therapeutics, Inc., priority 2022, published 2025) can be followed below.

Experiment [1] deals with GST-RIPK2 fusion protein (human RIPK2 amino acids 1-310) (Homo sapiens (Human), UniProt O43353). Nature of the experiment: RIPK2 binding competition assay (TR-FRET, Tracer 199).
Experiment [2] deals with NF-κB pathway (SEAP) in THP1-Dual cells. Nature of the experiment: THP-1 Dual cell SEAP assay (L18-MDP stimulated). The settings on record: read-out: NFkB THP1 IC50. Type of experiment: cell-based.
[3] abbreviates: read-out: RIPK2 IC50, RIPK2 binding competition assay.

Read-outs that look alike come from different tables or passages of the source. Bounds are passed on as bounds.

By IC50 is commonly meant the concentration at which inhibition is half-maximal.

GST-RIPK2 fusion protein (human RIPK2 amino acids 1-310), sequence (O43353 1-310): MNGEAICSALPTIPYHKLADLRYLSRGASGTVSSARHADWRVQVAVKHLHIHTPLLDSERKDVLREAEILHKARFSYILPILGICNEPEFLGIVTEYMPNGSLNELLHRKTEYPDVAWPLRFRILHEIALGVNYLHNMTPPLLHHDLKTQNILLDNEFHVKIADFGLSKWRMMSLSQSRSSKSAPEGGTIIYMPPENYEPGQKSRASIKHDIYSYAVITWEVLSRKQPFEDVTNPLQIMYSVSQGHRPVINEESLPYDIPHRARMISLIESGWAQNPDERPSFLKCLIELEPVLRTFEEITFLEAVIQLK

Regarding `COc1cc2ncc(-c3cc(C)c(OC)c(NCCCO)n3)n2cc1S(=O)(=O)C(C)(C)C` [Example 311, 3-((6-(6-(tert-butylsulfonyl)-7-methoxyimidazo[1,2-a]pyridin-3-yl)-3-methoxy-4-methylpyridin-2-yl)amino)propan-1-ol], the IC50 in experiment [1] lay in the range of 0.0025 to 0.02 µM; in experiment [2] (Homo sapiens, THP1-Dual), 0.25 to 1 µM.
On to `COc1cc2ncc(-c3ccc(OC)c(NCCCO)n3)n2cc1S(=O)(=O)C(C)(C)C` [Example 312, 3-((6-(6-(tert-butylsulfonyl)-7-methoxyimidazo[1,2-a]pyridin-3-yl)-3-methoxypyridin-2-yl)amino)propan-1-ol], for which the half-maximal inhibitory concentration (IC50) in experiment [1] was in the range of 0.0025 to 0.02 µM; in experiment [2] (Homo sapiens, THP1-Dual), 0.25 to 1 µM.
With `CCCS(=O)(=O)Nc1nc(-c2cnc3cc(OC)c(S(=O)(=O)C(C)(C)C)cn23)ccc1OC(F)(F)F` [Example 313, N-(6-(6-(tert-butylsulfonyl)-7-methoxyimidazo[1,2-a]pyridin-3-yl)-3-(trifluoromethoxy)pyridin-2-yl)propane-1-sulfonamide], the IC50 is above 0.02 µM in experiment [1] (setting [3]) and above 1 µM in experiment [2] (Homo sapiens, THP1-Dual).
For the compound `COc1cc2ncc(-c3cc(F)nc(F)c3)n2cc1S(=N)(=O)C(C)(C)C` (stereo not shown) [Example 315, tert-butyl(3-(2,6-difluoropyridin-4-yl)-7-methoxyimidazo[1,2-a]pyridin-6-yl)(imino)-λ^6-sulfanone], the half-inhibitory concentration (IC50) in experiment [1] (setting [3]) is above 0.02 µM; in experiment [2] (Homo sapiens, THP1-Dual), above 1 µM.
For `COc1cc2ncc(-c3cc(F)nc(NCC4CCN(C(C)=O)CC4)c3)n2cc1S(=O)(=O)C(C)(C)C` [Example 317, 1-(4-(((4-(6-(tert-butylsulfonyl)-7-methoxyimidazo[1,2-a]pyridin-3-yl)-6-fluoropyridin-2-yl)amino)methyl)piperidin-1-yl)ethan-1-one], the IC50 in experiment [1] (setting [3]) is below 0.001 µM; in experiment [2] (Homo sapiens, THP1-Dual), below 0.05 µM.
Turning to `COc1cc2ncc(-c3cc(F)c(OC)c(NCCCO)c3)n2cc1S(=O)(=O)C(C)(C)C` [Example 319, 3-((5-(6-(tert-butylsulfonyl)-7-methoxyimidazo[1,2-a]pyridin-3-yl)-3-fluoro-2-methoxyphenyl)amino)propan-1-ol], the concentration for half-maximal inhibition (IC50) fell in the range of 0.001 to 0.0025 µM in experiment [1] and 0.05 to 0.25 µM in experiment [2] (Homo sapiens, THP1-Dual).
For `COc1cc2ncc(-c3cccc(NCCCO)c3)n2cc1S(=O)(=O)C(C)(C)C` [Example 320, 3-((3-(6-(tert-butylsulfonyl)-7-methoxyimidazo[1,2-a]pyridin-3-yl)phenyl)amino)propan-1-ol], the IC50 was above 0.02 µM in experiment [1] (setting [3]) and above 1 µM in experiment [2] (Homo sapiens, THP1-Dual).
With `COc1cc2ncc(-c3cc(C)c(OC)c(NCCCO)c3)n2cc1S(=O)(=O)C(C)(C)C` [Example 322, 3-((5-(6-(tert-butylsulfonyl)-7-methoxyimidazo[1,2-a]pyridin-3-yl)-2-methoxy-3-methylphenyl)amino)propan-1-ol], the 50% inhibitory concentration (IC50) was 0.0025 to 0.02 µM in experiment [1] and above 1 µM in experiment [2] (Homo sapiens, THP1-Dual).
For `COc1cc2ncc(-c3cnn(CCCO)c3)n2cc1S(=O)(=O)C(C)(C)C` [Example 323, 3-(4-(6-(tert-butylsulfonyl)-7-methoxyimidazo[1,2-a]pyridin-3-yl)-1H-pyrazol-1-yl)propan-1-ol], the IC50 in experiment [1] (setting [3]) was above 0.02 µM; in experiment [2] (Homo sapiens, THP1-Dual), above 1 µM.
In the case of `COc1cc2ncc(-c3cnn(CCO)c3)n2cc1S(=O)(=O)C(C)(C)C` [Example 324, 2-(4-(6-(tert-butylsulfonyl)-7-methoxyimidazo[1,2-a]pyridin-3-yl)-1H-pyrazol-1-yl)ethan-1-ol], the IC50 in experiment [1] (setting [3]) is above 0.02 µM; in experiment [2] (Homo sapiens, THP1-Dual), above 1 µM.
For `CCCS(=O)(=O)N(C)c1cc(-c2cnc3cc(OC)c(S(=O)(=O)C(C)(C)C)cn23)cc(OC)c1C` [Example 325, N-(5-(6-(tert-butylsulfonyl)-7-methoxyimidazo[1,2-a]pyridin-3-yl)-3-methoxy-2-methylphenyl)-N-methylpropane-1-sulfonamide], the IC50 is above 0.02 µM in experiment [1] (setting [3]) and above 1 µM in experiment [2] (Homo sapiens, THP1-Dual).
In the case of `CNc1cc(-c2cnc3cc(OC)c(S(=O)(=O)C(C)(C)C)cn23)cc(OC)c1OC` [Example 326, 5-(6-(tert-butylsulfonyl)-7-methoxyimidazo[1,2-a]pyridin-3-yl)-2,3-dimethoxy-N-methylaniline], the IC50 is 0.001 to 0.0025 µM in experiment [1] and 0.05 to 0.25 µM in experiment [2] (Homo sapiens, THP1-Dual).
In the same order, the values of `COc1cc2ncc(-c3cc(Cl)nc(NCCCO)c3)n2cc1S(=O)(=O)C(C)(C)C` [Example 327, 3-((4-(6-(tert-butylsulfonyl)-7-methoxyimidazo[1,2-a]pyridin-3-yl)-6-chloropyridin-2-yl)amino)propan-1-ol] are 0.001 to 0.0025 µM and below 0.05 µM.
For the compound `COc1cc2ncc(-c3cc(N)c(=O)n(C(F)F)c3)n2cc1S(=O)(=O)C(C)(C)C` [Example 328, 3-amino-5-(6-(tert-butylsulfonyl)-7-methoxyimidazo[1,2-a]pyridin-3-yl)-1-(difluoromethyl) pyridin-2(1H)-one], the IC50 in experiment [1] (setting [3]) is above 0.02 µM; in experiment [2] (Homo sapiens, THP1-Dual), above 1 µM.
As to `COc1cc2ncc(-c3cc(F)c(OC)c(NCCN)c3)n2cc1S(=O)(=O)C(C)(C)C` [Example 329, N1-(5-(6-(tert-butylsulfonyl)-7-methoxyimidazo[1,2-a]pyridin-3-yl)-3-fluoro-2-methoxyphenyl) ethane-1,2-diamine], the 50% inhibitory concentration (IC50) was 0.0025 to 0.02 µM in experiment [1] and 0.25 to 1 µM in experiment [2] (Homo sapiens, THP1-Dual).
Regarding `CC(C)(C)S(=O)(=O)c1ccc2ncc(-c3cc(N)nc(F)c3)n2c1` [Example 330, 4-(6-(tert-butylsulfonyl)imidazo[1,2-a]pyridin-3-yl)-6-fluoropyridin-2-amine], the IC50 in experiment [1] lay within 0.0025 to 0.02 µM; in experiment [2] (Homo sapiens, THP1-Dual), 0.25 to 1 µM.
With `CCc1ccc(-c2cnc3cc(OC)c(S(=O)(=O)C(C)(C)C)cn23)nc1N` [Example 331, 6-(6-(tert-butylsulfonyl)-7-methoxyimidazo[1,2-a]pyridin-3-yl)-3-ethylpyridin-2-amine], the half-inhibitory concentration (IC50) is above 0.02 µM in experiment [1] (setting [3]) and above 1 µM in experiment [2] (Homo sapiens, THP1-Dual).
With `COc1cc2ncc(-c3ccc(C)c(N)n3)n2cc1S(=O)(=O)C(C)(C)C` [Example 332, 6-(6-(tert-butylsulfonyl)-7-methoxyimidazo[1,2-a]pyridin-3-yl)-3-methylpyridin-2-amine], the 50% inhibitory concentration (IC50) in experiment [1] (setting [3]) is above 0.02 µM; in experiment [2] (Homo sapiens, THP1-Dual) it was above 1 µM.
In the case of `COc1cc2ncc(-c3cc(N)c(C#N)c(F)c3)n2cc1S(=O)(=O)C(C)(C)C` [Example 333, 2-amino-4-(6-(tert-butylsulfonyl)-7-methoxyimidazo[1,2-a]pyridin-3-yl)-6-fluorobenzonitrile], the IC50 was in the range of 0.0025 to 0.02 µM in experiment [1] and 0.25 to 1 µM in experiment [2] (Homo sapiens, THP1-Dual).
`COc1cc2ncc(-c3ccc(OC(F)(F)F)c(N)n3)n2cc1S(=O)(=O)C(C)(C)C` [Example 334, 6-(6-(tert-butylsulfonyl)-7-methoxyimidazo[1,2-a]pyridin-3-yl)-3-(trifluoromethoxy)pyridin-2-amine]: the IC50 in experiment [1] (setting [3]) was above 0.02 µM; in experiment [2] (Homo sapiens, THP1-Dual), above 1 µM.
In the case of `COc1cc2ncc(-c3cc(C)c(OC)c(N)n3)n2cc1S(=O)(=O)C(C)(C)C` [Example 335, 6-(6-(tert-butylsulfonyl)-7-methoxyimidazo[1,2-a]pyridin-3-yl)-3-methoxy-4-methylpyridin-2-amine], the IC50 is above 0.02 µM in experiment [1] and above 1 µM in experiment [2] (Homo sapiens, THP1-Dual).
Consider `COc1cc2ncc(-c3ccc(OC)c(N)n3)n2cc1S(=O)(=O)C(C)(C)C` [Example 336, 6-(6-(tert-butylsulfonyl)-7-methoxyimidazo[1,2-a]pyridin-3-yl)-3-methoxypyridin-2-amine], for which the half-maximal inhibitory concentration (IC50) in experiment [1] (setting [3]) is above 0.02 µM; in experiment [2] (Homo sapiens, THP1-Dual), above 1 µM.
For the compound `COc1cc2ncc(-c3cc(F)c(OC)c(C(C)(C)O)c3)n2cc1S(=O)(=O)C(C)(C)C` [Example 337, 2-(5-(6-(tert-butylsulfonyl)-7-methoxyimidazo[1,2-a]pyridin-3-yl)-3-fluoro-2-methoxyphenyl)propan-2-ol], the 50% inhibitory concentration (IC50) lay within 0.001 to 0.0025 µM in experiment [1] and 0.25 to 1 µM in experiment [2] (Homo sapiens, THP1-Dual).
As to `COc1cc2ncc(-c3cc(F)c(OC)c(OCCO)c3)n2cc1S(=O)(=O)C(C)(C)C` [Example 338, 2-(5-(6-(tert-butylsulfonyl)-7-methoxyimidazo[1,2-a]pyridin-3-yl)-3-fluoro-2-methoxyphenoxy)ethan-1-ol], the IC50 in experiment [1] was 0.0025 to 0.02 µM; in experiment [2] (Homo sapiens, THP1-Dual), above 1 µM.
As to `COc1cc2ncc(-c3cc(F)c(OC)c(C4CC4)c3)n2cc1S(=O)(=O)C(C)(C)C` [Example 340], the IC50 lay within 0.001 to 0.0025 µM in experiment [1] and 0.05 to 0.25 µM in experiment [2] (Homo sapiens, THP1-Dual).
Regarding `CCCS(=O)(=O)Nc1nc(-c2cnc3cc(OC)c(S(=O)(=O)C(C)(C)C)cn23)ccc1OC` [compound 314, N-(6-(6-(tert-butylsulfonyl)-7-methoxyimidazo[1,2-a]pyridin-3-yl)-3-methoxypyridin-2-yl)propane-1-sulfonamide], the half-maximal inhibitory concentration (IC50) in experiment [1] (setting [3]) is above 0.02 µM; in experiment [2] (Homo sapiens, THP1-Dual) it was above 1 µM.
With `COc1cc2ncc(-c3cc(F)nc(NCCS(C)(=N)=O)c3)n2cc1S(=O)(=O)C(C)(C)C` (stereo not shown) [compound 316], the 50% inhibitory concentration (IC50) in experiment [1] (setting [3]) lay in the range of 0.0025 to 0.02 µM; in experiment [2] it was 0.25 to 1 µM.
Consider `COc1cc(NCCCO)cc(-c2cnc3cc(OC)c(S(=O)(=O)C(C)(C)C)cn23)n1` [compound 321, 3-((2-(6-(tert-butylsulfonyl)-7-methoxyimidazo[1,2-a]pyridin-3-yl)-6-methoxypyridin-4-yl)amino)propan-1-ol], for which the concentration for half-maximal inhibition (IC50) in experiment [1] (setting [3]) was above 0.02 µM; in experiment [2] (Homo sapiens, THP1-Dual) it was above 1 µM.
Turning to `COc1cc2ncc(-c3cc(F)c(OC)c(OCCCO)c3)n2cc1S(=O)(=O)C(C)(C)C` [compound 339, 3-(5-(6-(tert-butylsulfonyl)-7-methoxyimidazo[1,2-a]pyridin-3-yl)-3-fluoro-2-methoxyphenoxy) propan-1-ol], the IC50 in experiment [1] is 0.0025 to 0.02 µM; in experiment [2] (Homo sapiens, THP1-Dual) it was above 1 µM.
